Results taken from patent publication US20170189416A1, “PHARMACEUTICAL COMPOSITION FOR TREATING BREAST CANCER” (MA SHEN KAI RUEi CO., LTD., priority 2015, published 2017).
“Also recorded” adds a separate entry of the source.

Legend:
[1] = system: MCF-7; assay: MTT survival assay on human breast-cancer cells MCF-7; assay type: cell-based; details: MCF-7, MTT assay, isolated compound
Excerpt: (§1) According to the present invention, the effects such as treating breast cancer, inhibiting the growth of breast cancer cell and others, of Antroquinonol B (AnQB) and/or dehydroeburicoic acid (DeHBA) may be tested by using any of the test methods used in the prior arts, for example, MTT assay of using 3-(4,5-dimethylthiazol-2-yl)-2, S-diphenyl tetrazolium bromide (MTT) to determine cell survival rates of breast cancer cell lines.
(§2) The Antroquinonol B (AnQB) and dehydroeburicoic acid (DeHBA) separately isolated from the Extraction A of Example 1 were added into the culture media of human breast-cancer cells, MCF-7 or MDA-MB-231, to test for tumor cell survival by using anti-cancer drug screen model. This survival assay was carried out with the widely known MTT (3-[4,5-dimethylthiazol-2-yl]2,5-diphenyltetrazolium bromide) assay.
(§3) MCF-7 cell line (purchased from B CRC) is originated from primary breast cancer cells (early stage), sensitive to estrogen and therefore is estrogen-dependent, while MDA-MB-231 is insensitive to estrogen and therefore is estrogen-independent, which is a difficult tumor with a low survival rate.
(§4) The human breast-cancer cells, MCF-7 and MDA-MB-231 were cultivated in media containing fetal calf serum for 36 hours. The proliferated cells were washed once with PBS, then treated with 1× trypsin-EDTA and centrifuged at 2000 rpm for 25 minutes. The supernatant was discarded and the cell pellet was re-suspended in 30 ml of fresh culture medium by gently shaking. The cells were placed in a 96-well plate.
(§5) Subsequently, the plates were read on an ELISA reader to determine the survival rates. The half maximal inhibitory concentration (IC50) values were calculated and results of ex vivo survival assay were thus obtained.
(§6) By using the same manner as the method described above, respectively human breast cancer cell line MCF-7 and MDA-MB-231 was cultured. After then, the pharmaceutical compositions A˜F of the present invention was applied separately, and then MTT assay for each sample was measured to assess the inhibition effectiveness of various cancer cell activity while using pharmaceutical compositions A˜F of the present invention.

[2] = system: MDA-MB-231; assay: MTT survival assay on human breast-cancer cells MDA-MB-231; assay type: cell-based; details: MDA-MB-231, MTT assay, isolated compound
Excerpt: as §1, §2, §3, §4, §5, §6

Compound	half-maximal inhibitory concentration (IC50) [1]	survival rate of breast cancer cell line [1]	half-maximal inhibitory concentration (IC50) [2]	survival rate of breast cancer cell line [2]
C=C(CC[C@@H](C(=O)O)[C@H]1CC[C@@]2(C)C3=CC[C@H]4C(C)(C)[C@@H](O)CC[C@]4(C)C3=CC[C@]12C)C(C)C [dehydroeburicoic acid]	relatively low	can inhibit the growth of breast cancer cell; also recorded: can decrease the survival rates	relatively low	can inhibit the growth of breast cancer cell; also recorded: can decrease the survival rates
COC1=C(OC)[C@H](O)[C@H](C/C=C(\C)CC/C=C(/C)C/C=C/C(C)(C)O)[C@@H](C)C1=O [Antroquinonol B]	relatively low	can inhibit the growth of breast cancer cell; also recorded: can decrease the survival rates	relatively low	can inhibit the growth of breast cancer cell; also recorded: can decrease the survival rates
